According to patent publication US11365192B2, “Pyridine compound substituted with azole” (TAISHO PHARMACEUTICAL CO., LTD., priority 2017, dated 2022):

Key:
[1] = molecular target: human CYP4F2 (Homo sapiens (Human), UniProt P78329); assay: Inhibition test against 20-HETE producing enzyme CYP4F2 (luciferine derivative, luminescence); assay type: biochemical
How it was run: (§1)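 E. coli membranes (100 μg/mL protein) expressing human enzyme, room temperature 60 min, luciferin-derivative luminescence; IC50 from % inhibition. CYP4F2: 50 mM KPO4 pH 7.4, 2.5 μM substrate, 1 mM NADPH. CYP4A11: 100 mM Tris-HCl pH 7.5, 60 μM substrate, NADP+/glucose 6-phosphate/G6PDH regenerating system, 3.3 mM MgCl2.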

[2] = molecular target: human CYP4A11 (Homo sapiens (Human), UniProt Q02928); assay: Inhibition test against 20-HETE producing enzyme CYP4A11 (luciferine derivative, luminescence); assay type: biochemical
Chain of human CYP4A11 (Q02928 5-519): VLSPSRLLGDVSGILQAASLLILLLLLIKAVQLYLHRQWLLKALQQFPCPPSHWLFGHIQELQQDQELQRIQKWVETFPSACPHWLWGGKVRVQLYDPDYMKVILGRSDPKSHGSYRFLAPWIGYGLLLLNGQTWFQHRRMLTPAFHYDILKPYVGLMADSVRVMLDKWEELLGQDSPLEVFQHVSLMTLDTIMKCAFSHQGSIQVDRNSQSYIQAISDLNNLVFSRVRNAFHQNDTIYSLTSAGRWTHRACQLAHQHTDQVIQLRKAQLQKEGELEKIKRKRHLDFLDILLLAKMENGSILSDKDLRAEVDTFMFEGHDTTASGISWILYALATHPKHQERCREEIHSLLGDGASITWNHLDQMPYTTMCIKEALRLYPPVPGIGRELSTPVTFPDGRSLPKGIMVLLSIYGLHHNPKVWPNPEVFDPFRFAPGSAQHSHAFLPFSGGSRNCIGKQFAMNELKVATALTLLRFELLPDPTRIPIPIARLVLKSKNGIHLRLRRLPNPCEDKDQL
How it was run: as §1

[3] = E. coli membrane fraction expressing human CYP4F2, 2.5 μM luciferine derivative, room temperature 60 minutes
[4] = E. coli membrane fraction expressing human CYP4A11, 60 μM luciferine derivative, room temperature 60 minutes
[5] = human CYP4F2, luciferine derivative, luminescence
[6] = human CYP4A11, luciferine derivative, luminescence

Chain of human CYP4F2 (P78329 5-520): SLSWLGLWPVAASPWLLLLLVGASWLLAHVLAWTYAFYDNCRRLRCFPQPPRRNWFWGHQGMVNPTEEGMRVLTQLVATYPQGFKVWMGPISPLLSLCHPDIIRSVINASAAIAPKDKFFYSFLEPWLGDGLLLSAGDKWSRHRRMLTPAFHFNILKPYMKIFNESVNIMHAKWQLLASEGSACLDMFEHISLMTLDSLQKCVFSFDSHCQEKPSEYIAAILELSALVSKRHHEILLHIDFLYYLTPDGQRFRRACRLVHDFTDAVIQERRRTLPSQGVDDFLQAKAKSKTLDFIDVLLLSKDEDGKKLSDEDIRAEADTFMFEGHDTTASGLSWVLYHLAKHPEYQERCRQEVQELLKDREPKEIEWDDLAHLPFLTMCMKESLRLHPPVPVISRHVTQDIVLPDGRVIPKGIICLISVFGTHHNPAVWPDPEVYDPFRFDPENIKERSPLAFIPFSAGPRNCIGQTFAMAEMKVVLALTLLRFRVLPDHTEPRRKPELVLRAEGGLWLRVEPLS

Structure (SMILES) | IC50 [1, 3] | IC50 [2, 4] | IC50 [1, 5] | IC50 [2, 6]
O=C(c1cccc(=O)[nH]1)N1CCC[C@@H](COc2ccc(-c3ccn[nH]3)nc2)C1 [Example 41-4] | 1500 nM | 710 nM |  | 
CCS(=O)(=O)NCC(=O)N1CCC[C@@H](COc2ccc(-c3ccn[nH]3)nc2)C1 [Example 41-5] | 550 nM | 1100 nM |  | 
NS(=O)(=O)CCCC(=O)N1CCC[C@@H](COc2ccc(-c3ccn[nH]3)nc2)C1 [Example 41-6] | 320 nM | 440 nM |  | 
CNC(=O)c1cccc(COc2ccc(-c3ccn[nH]3)nc2)c1 [Example 42-1, N-Methyl-3-[[6-(1H-pyrazol-5-yl)-3-pyridinyl]oxymethyl]benzamide] | 76 nM | 420 nM |  | 
CCCNC(=O)c1cccc(COc2ccc(-c3ccn[nH]3)nc2)c1 [Example 42-2] | 25 nM | 110 nM |  | 
O=C(NCCO)c1cccc(COc2ccc(-c3ccn[nH]3)nc2)c1 [Example 42-3] | 210 nM | 350 nM |  | 
CNC(=O)Cc1cccc(COc2ccc(-c3ccn[nH]3)nc2)c1 [Example 42-4] | 12 nM | 540 nM |  | 
CN(C)C(=O)Cc1cccc(COc2ccc(-c3ccn[nH]3)nc2)c1 [Example 42-5] | 260 nM | 200 nM |  | 
CCCNC(=O)Cc1cccc(COc2ccc(-c3ccn[nH]3)nc2)c1 [Example 42-6] | 97 nM | 300 nM |  | 
O=C(Cc1cccc(COc2ccc(-c3ccn[nH]3)nc2)c1)NCCO [Example 42-7] | 1100 nM | 760 nM |  | 
CNC(=O)CCc1cccc(COc2ccc(-c3ccn[nH]3)nc2)c1 [Example 42-8] | 70 nM | 120 nM |  | 
CN(C)C(=O)CCc1cccc(COc2ccc(-c3ccn[nH]3)nc2)c1 [Example 42-9] | 76 nM | 67 nM |  | 
CCCNC(=O)CCc1cccc(COc2ccc(-c3ccn[nH]3)nc2)c1 [Example 42-10] | 15 nM | 46 nM |  | 
O=C(CCc1cccc(COc2ccc(-c3ccn[nH]3)nc2)c1)NCCO [Example 42-11] | 95 nM | 100 nM |  | 
O=C(CCc1cccc(COc2ccc(-c3ccn[nH]3)nc2)c1)N1CCC1 [Example 42-12] | 42 nM | 44 nM |  | 
O=C(CCc1cccc(COc2ccc(-c3ccn[nH]3)nc2)c1)N1CCCC1 [Example 42-13] | 15 nM | 150 nM |  | 
O=C(CCc1cccc(COc2ccc(-c3ccn[nH]3)nc2)c1)N1CCCCC1 [Example 42-14] |  |  | 30 nM | 240 nM
O=C(CCc1cccc(COc2ccc(-c3ccn[nH]3)nc2)c1)N1CCOCC1 [Example 42-15] |  |  | 140 nM | 400 nM
CN(C)C(=O)/C=C/c1cccc(COc2ccc(-c3ccn[nH]3)nc2)c1 [Example 42-16] |  |  | 5.7 nM | 210 nM
O=C(CCc1cccc(COc2cnc(-c3ccn[nH]3)c(F)c2)c1)N1CCC1 [Example 42-17] |  |  | 12 nM | 35 nM
O=C(CCc1cccc(COc2cnc(-c3ccn[nH]3)c(F)c2)c1)NCCO [Example 42-18] |  |  | 21 nM | 58 nM

Structure (SMILES) | IC50 [1, 3] | IC50 [2, 4] | IC50 [1, 5] | IC50 [2, 6]
O=C(CCc1cccc(COc2cnc(-c3ccn[nH]3)c(F)c2)c1)N1CC(O)C1 [Example 42-19] |  |  | 47 nM | 110 nM
O=C(CCc1cccc(COc2cnc(-c3ccn[nH]3)c(F)c2)c1)NC1COC1 [Example 42-20] |  |  | 11 nM | 76 nM
CN(C)C(=O)[C@H]1C[C@](O)(c2cccc(COc3ccc(-c4ccn[nH]4)nc3)c2)C1 [Example 42-21] |  |  | 28 nM | 430 nM
CN(C)C(=O)[C@H]1C[C@](O)(c2cc(COc3ccc(-c4ccn[nH]4)nc3)ccc2F)C1 [Example 42-22] |  |  | 99 nM | 270 nM
CNC(=O)C(C)c1cccc(COc2ccc(-c3ccn[nH]3)nc2)c1 (centres unmarked) [Example 42-23] |  |  | 55 nM | 160 nM
CNC(=O)C(C)(C)c1cccc(COc2ccc(-c3ccn[nH]3)nc2)c1 [Example 42-24] |  |  | 150 nM | 39 nM
O=C(CCc1cccc(COc2ccc(-c3ccn[nH]3)nc2)c1)N1CC(F)C1 [Example 43-1, 1-(3-Fluoro-1-azetidinyl)-3-[3-[[6-(1H-pyrazol-5-yl)-3-pyridinyl]oxymethyl]phenyl]-1-propanone] |  |  | 52 nM | 58 nM
O=C(CCc1cccc(COc2ccc(-c3ccn[nH]3)nc2)c1)N1CC(F)(F)C1 [Example 43-2] |  |  | 48 nM | 59 nM
CN(CCO)C(=O)CCc1cccc(COc2ccc(-c3ccn[nH]3)nc2)c1 [Example 43-3] |  |  | 170 nM | 310 nM
O=C(CCc1cccc(COc2ccc(-c3ccn[nH]3)nc2)c1)NC1COC1 [Example 43-4] |  |  | 45 nM | 150 nM
COCCNC(=O)CCc1cccc(COc2ccc(-c3ccn[nH]3)nc2)c1 [Example 43-5] |  |  | 40 nM | 82 nM
C[C@@H](O)CNC(=O)CCc1cccc(COc2ccc(-c3ccn[nH]3)nc2)c1 [Example 43-6] |  |  | 92 nM | 56 nM
C[C@@H](CO)NC(=O)CCc1cccc(COc2ccc(-c3ccn[nH]3)nc2)c1 [Example 43-7] |  |  | 63 nM | 320 nM
C[C@H](CO)NC(=O)CCc1cccc(COc2ccc(-c3ccn[nH]3)nc2)c1 [Example 43-8] |  |  | 120 nM | 120 nM
C[C@H](O)CNC(=O)CCc1cccc(COc2ccc(-c3ccn[nH]3)nc2)c1 [Example 43-9] |  |  | 73 nM | 130 nM
O=C(CCc1cccc(COc2ccc(-c3ccn[nH]3)nc2)c1)N1CC(O)C1 [Example 43-10] |  |  | 190 nM | 140 nM
O=C(CCc1cccc(COc2ccc(-c3ccn[nH]3)nc2)c1)NCC(=O)N1CCCC1 [Example 43-11] |  |  | 32 nM | 280 nM
CO[C@H](C)CNC(=O)CCc1cccc(COc2ccc(-c3ccn[nH]3)nc2)c1 [Example 43-12] |  |  | 40 nM | 76 nM
O=C(CCc1cccc(COc2ccc(-c3ccn[nH]3)nc2)c1)NC[C@H]1CCCO1 [Example 43-13] |  |  | 21 nM | 48 nM
O=C(CCc1cccc(COc2ccc(-c3ccn[nH]3)nc2)c1)NC[C@@H]1CCCO1 [Example 43-14] |  |  | 18 nM | 52 nM
CN(C)CCNC(=O)CCc1cccc(COc2ccc(-c3ccn[nH]3)nc2)c1 [Example 43-15] |  |  | 280 nM | 910 nM

Structure (SMILES) | IC50 [1, 3] | IC50 [2, 4] | IC50 [1, 5] | IC50 [2, 6]
CN(C)C(=O)C1CC1c1cccc(COc2ccc(-c3ccn[nH]3)nc2)c1 (centres unmarked) [Example 43-16] |  |  | 22 nM | 190 nM
CS(=O)(=O)NC(=O)c1cccc(COc2ccc(-c3ccn[nH]3)nc2)c1 [Example 44-1, N-Methylsulfonyl-3-[[6-(1H-pyrazol-5-yl)-3-pyridinyl]oxymethyl]benzamide] |  |  | 7500 nM | 49 nM
CN(C(=O)c1cccc(COc2ccc(-c3ccn[nH]3)nc2)c1)S(C)(=O)=O [Example 44-2] |  |  | 73 nM | 340 nM
CS(=O)(=O)NC(=O)Cc1cccc(COc2ccc(-c3ccn[nH]3)nc2)c1 [Example 44-3] |  |  | 11000 nM | 44 nM
CN(C(=O)Cc1cccc(COc2ccc(-c3ccn[nH]3)nc2)c1)S(C)(=O)=O [Example 44-4] |  |  | 290 nM | 410 nM
CS(=O)(=O)NC(=O)CCc1cccc(COc2ccc(-c3ccn[nH]3)nc2)c1 [Example 44-5] |  |  | 2700 nM | 31 nM
CN(C(=O)CCc1cccc(COc2ccc(-c3ccn[nH]3)nc2)c1)S(C)(=O)=O [Example 44-6] |  |  | 45 nM | 230 nM
NC(=O)c1cc(COc2ccc(-c3ccn[nH]3)nc2)ccn1 [Example 44-7, 4-[[6-(1H-Pyrazol-5-yl)-3-pyridinyl]oxymethyl]-2-pyridinecarboxamide] |  |  | 85 nM | 3800 nM
O=C(O)CCNC(=O)c1cccc(COc2ccc(-c3ccn[nH]3)nc2)c1 [Example 45-1, 3-[[Oxo-[3-[[6-(1H-pyrazol-5-yl)-3-pyridinyl]oxymethyl]phenyl]methyl]amino]propanoic Acid] |  |  | 7600 nM | 120 nM
CN(CCC(=O)O)C(=O)c1cccc(COc2ccc(-c3ccn[nH]3)nc2)c1 [Example 45-2] |  |  | 3200 nM | 150 nM
CC(C)(CNC(=O)c1cccc(COc2ccc(-c3ccn[nH]3)nc2)c1)C(=O)O [Example 45-3] |  |  | 6100 nM | 91 nM
O=C(NCC1(C(=O)O)CC1)c1cccc(COc2ccc(-c3ccn[nH]3)nc2)c1 [Example 45-4] |  |  | 6400 nM | 86 nM
O=C(NCC1(C(=O)O)CCCC1)c1cccc(COc2ccc(-c3ccn[nH]3)nc2)c1 [Example 45-5] |  |  | 750 nM | 74 nM
O=C(NCC1(C(=O)O)CCOCC1)c1cccc(COc2ccc(-c3ccn[nH]3)nc2)c1 [Example 45-6] |  |  | 4500 nM | 250 nM
O=C(O)C[C@H](NC(=O)c1cccc(COc2ccc(-c3ccn[nH]3)nc2)c1)c1ccccc1 [Example 45-7] |  |  | 2900 nM | 780 nM
O=C(O)C[C@@H](NC(=O)c1cccc(COc2ccc(-c3ccn[nH]3)nc2)c1)c1ccccc1 [Example 45-8] |  |  | 1900 nM | 130 nM
C[C@H](NC(=O)c1cccc(COc2ccc(-c3ccn[nH]3)nc2)c1)C(=O)O [Example 45-9] |  |  | 4800 nM | 82 nM
C[C@@H](NC(=O)c1cccc(COc2ccc(-c3ccn[nH]3)nc2)c1)C(=O)O [Example 45-10] |  |  | 10000 nM | 180 nM
O=C(N[C@@H](Cc1ccccc1)C(=O)O)c1cccc(COc2ccc(-c3ccn[nH]3)nc2)c1 [Example 45-11] |  |  | 1200 nM | 23 nM
